Reference: a melting point compilation (Tetko et al.; mined from patent text by program, amines drawn as free bases though some values may be those of a salt)

SMILES	melting point [°C]
CC(c1cccnn1)C(O)(Cn1cncn1)c1ccc(F)cc1F (centres undefined)	134 to 135
C/C(NCCCc1ccccc1)=C(\C#N)C(N)=S	125 to 126
COC(=O)c1ccccc1-c1cnc(-c2cccc(C(F)(F)F)c2)o1	84.5 to 86
CCOC(=O)Nc1nc(CC(=O)OC)ns1	110 to 112
C[Si](C)(C)OCc1cccc2c1c1c(c3ccccc32)-c2c(c3ccccc3c3ccccc23)C1	130 to 131
NS(=O)(=O)Cc1ccc(NCC(=O)N2CCC(Oc3ccc(Cl)cc3)CC2)cc1	180 to 187
O=C1CCN2C(=O)c3cccc(NC(=O)Nc4cc(O)c5ccccc5n4)c3C2C1 (centres undefined)	> 260
CCN(CC)C(=O)n1cc(Cc2ccc(C(=O)NS(=O)(=O)c3ccccc3C)cc2OC)c2cc(C(=O)NCC(C)CC(F)(F)F)ccc21 (centres undefined)	153 to 154
O=C(O)C1CSCCC12OCCO2 (centres undefined)	99 to 101
O=C1c2ccccc2C(=O)N1C1CN(C(c2ccccc2)c2ccccc2)C1	118 to 120
COc1ccc(OC)c(Cc2ccc3nc(N)nc(N)c3c2)c1	190 to 192
O=C1O[C@@H]2C[C@@]1(O)c1cc(-c3ccccc3)sc1[C@H]2O	168 to 173
COc1ccc(S(=O)(=O)N2CCc3cccc(-c4ccc(N(C)C)cc4)c32)cc1	178 to 180
CCOc1c(NC(C)(C)CC)c(=O)c1=O	78 to 80
CC1(C)C=C(c2c[nH]c(-c3ccc(F)cc3)c2-c2ccncc2)CC(C)(C)N1	258 to 259
CC(c1cc2ccccc2s1)N(OC(=O)OC(C)(C)C)C(N)=O (centres undefined)	120 to 122
COc1cc(OC)nc(NC(=O)NS(=O)(=O)c2nccn2-c2nn(C)cc2Cl)n1	164 to 165
O=S(=O)(N[C@@H]1C[C@@H](/C=C\CCCCO)N(S(=O)(=O)c2ccc(Cl)cc2)C1)c1ccc(Cl)cc1	108 to 109
Clc1cc(N2CCCC2)nc(NC23CC4CC(CC(C4)C2)C3)n1	178 to 180
COc1nc(C(F)(F)F)c(F)c(=O)n1-c1cc(OC(C)C)c(Cl)cc1F	144 to 146
CCCc1nsc(Oc2cccc(NC(=O)OC(C)C)c2)n1	64
CN(C(=O)C1CC1)c1cccc(-c2ccnc3c(C(=O)c4ccccc4)cnn23)c1	168 to 170
COCCOC12CC(CO)CN(C)C1Cc1c[nH]c3cccc2c13 (centres undefined)	188 to 193
CCOC(=O)CCCCOc1ccc([N+](=O)[O-])c(C=C2C(=O)NC(=O)N2C)c1	121 to 123
Cc1cc(C)c2cccc(OCc3c(Cl)ccc(S(=O)(=O)N4CCC[C@H]4C(=O)NCc4ccc(C=NN)cn4)c3Cl)c2n1	128 to 130

SMILES	melting point [°C]
CNc1nc2ncnn2c(NC2CCCC2)c1-c1ccccc1	158 to 160
COc1c(C2CCN(CCCCNC(=O)c3ccc(-c4ccc(Cl)cc4)nc3)CC2)ccc2c1CCCC2	184 to 186
COC(=O)c1oc(C(C)(C)C)cc1N	91 to 92
COc1ccc(-c2cncc(C#N)c2N(C)c2ccc3[nH]ccc3c2)cc1OC	224 to 226
N#CCc1cccc2nnsc12	78 to 80
COc1cc(N)c(Cl)cc1C(=O)NCC1CCN(CCCCCCSc2ccccc2)CC1	68 to 70
CCCC(c1ccc(C(=O)OC)cc1OCc1ccc(Cl)cc1Cl)n1ccnc1 (centres undefined)	104
C/C(=C\c1ccc(OCC(=O)O)cc1)c1ccc2c(c1)C(C)(C)CCC2(C)C	152 to 154
C=CCC(C(=O)O)(c1ccccc1)c1ccccc1	134 to 137
CCc1nc2c(C)cc(C)nc2n1Cc1ccc(C(C(C)C)C(C)C(=O)O)cc1 (centres undefined)	84 to 90
COc1ccc(C(=O)N2CCN(c3ccc(N)c(CCC(=O)O)c3)CC2)cc1OC	98 to 101
Fc1ccccc1Cn1cnc2c(Nn3ccc4ccccc43)ncnc21	236 to 238
COc1ccc(CC(=O)c2ccc(OCc3ccccc3)cc2)cc1	147 to 148
CCC(=NOCc1ccc(Cl)cc1)c1cc(Cl)ccc1N(C(C)=O)S(=O)(=O)C(F)(F)F	64 to 66
COc1ccc(N(Cc2cccc3ccccc23)c2ccccc2)cc1	154 to 159
CCSC(N)=C(C#N)C#N	180 to 182
CN[C@@H]1COc2cc(Cl)ccc2O1	70 to 71
COC(C)=Nc1cccc(O)n1	128 to 129
Cc1nc2c(N)nc3c(c2n1CCCCS(=O)(=O)c1ccc(F)cc1)CCCC3	159 to 162
C1=C(c2ccc3c(c2)OCCO3)CCC(N2CCN(Cc3ccccc3)CC2)C1 (centres undefined)	132 to 133
O=Cc1c[nH]c2c1ccc1c3cc(-c4ccc(OC(F)(F)F)cc4)ccc3[nH]c12	> 250
CNc1nc(-c2cccc(NC(=O)c3ccc(N(C)C)nc3)c2)c2cc(OC)c(OC)cc2n1	149 to 151
Cc1nc(-n2cnn(Cc3ccc(F)cc3)c2=O)sc1C(=O)NCc1cc[nH]n1	178 to 179
OC1C(COCC(F)(F)F)OC(n2cnc3c(Nc4ccc(F)cc4)ncnc32)C1O (centres undefined)	214 to 215
CN1CCC(c2cc3c(N(C)C)cccc3c(=O)[nH]2)CC1	216 to 218

SMILES	melting point [°C]
Cc1oc(-c2ccccc2)nc1Cc1cc2cc(CCCC3OC(=O)NC3=O)ccc2o1 (centres undefined)	184 to 185
NC(=O)c1[nH]c2ccccc2c1Cl	191 to 192
CC1CCCC(Cl)(Cl)C(=O)N1 (centres undefined)	132 to 134
CCCCc1ccc(CCCCC(COC(C)=O)(COC(C)=O)NC(C)=O)cc1	68 to 71
CS(=O)(=O)c1ccc(C(CC2CCCC2)C(=O)Nc2nccs2)cc1NO (centres undefined)	124 to 126
CCC(C)(N=NC(C)(CC)NC(=O)Nc1ccccc1)NC(=O)Nc1ccccc1 (centres undefined)	118 to 120
CC(c1ccncn1)C(O)(Cn1cncn1)c1ccc(F)cc1F (centres undefined)	114 to 116
O=C1c2ccccc2S(=O)(=O)N1CCCOc1ccccc1	83 to 86
COc1ccc2c(c1)C(=O)CC1(CCN(c3cc(=O)n(C)c(=O)n3C)CC1)O2	202 to 203
CN(C)C1(c2ccccc2)CCC(=CC(=O)NCCc2ccccc2)CC1 (centres undefined)	153 to 155
C=CCNc1c(NC(CC)CC)cc(C)nc1Oc1c(C)cc(C)cc1C	86 to 88
Cc1cc(-c2cc(C(F)(F)F)n3cnc(-c4ccncc4)c3n2)ccc1Cl	254
COc1ccccc1N1CCN(Cc2ccccc2)CC1=O	109 to 111
CSC1NC(=O)N(Cc2ccccc2)C(=O)N1N=C(C)C (centres undefined)	148 to 150
COC(=O)c1ccc(S(=O)(=O)N2CCC(Sc3cc(C(C)(C)C)c(O)c(C(C)(C)C)c3)CC2)n1C	181 to 183
COCCS(=O)(=O)c1ccc(CCN2CC=C(c3c[nH]c(-c4ccc(F)c(Cl)c4)c3-c3ccncc3)CC2)cc1	208 to 210
COC(=O)C1=CC(=O)CCC1c1cccs1 (racemic)	69
C=C(Cl)CC(C#N)(C#N)Cc1ccc(Cl)cc1	85.5
Cc1nc(N)c2nc(C)n(CCOCC#Cc3ccccc3)c2c1C	187 to 188
O=c1oc2c(c(O)c1-c1ccccc1)CCCC2c1ccccc1 (centres undefined)	185
CN(C)c1ccc([N+](=O)[O-])cc1C#N	109 to 110
O=C(NNC(=O)C(O)c1cccc(O)c1)c1c(O)cc(O)cc1Cl (centres undefined)	230 to 231
CCCc1c(OCC(O)CS(=O)(=O)c2ccc(CC(=O)OC)c(F)c2)ccc(C(C)=O)c1O (centres undefined)	118 to 119
COc1cc2ncnc(N3CCCCc4ccc(Br)cc43)c2cc1OC	209 to 217
CCOC(=O)C(CCCCCCl)=NO	36 to 38

SMILES	melting point [°C]
Cc1cc(-c2cccc(NC(=O)N[C@@H]3c4cc(C#N)ccc4OC(C)(C)[C@H]3O)c2)no1	110 to 120
CCCn1c([N+](=O)[O-])cnc1-c1cnc(N)s1	234 to 236
O=c1[nH]ncc2c1c(O)nc1ccc(Cl)c(Cl)c12	270
Cc1nc(Cl)c2c(c1O)COC2(c1ccccc1)c1cccc(Cl)c1Cl (centres undefined)	221
O=C1CCC[C@@H](c2ccc(Cl)cc2)N1c1ccccc1	77.5 to 80
CCc1ccc(C(=O)C=CN(C)C)cc1	80 to 81
CC(C)c1ccc2c(c1)c(Sc1nc3cc(Cl)ccc3s1)c(CC(C)(C)C(=O)O)n2Cc1ccc(Cl)cc1	154 to 156
C/C=C/C/C=C/CCCCCCCC(=O)Nc1nc(CC(=O)O)cs1	101 to 102
Cc1ccc(S(=O)(=O)C(=CNc2ccc(Br)cn2)C(=O)c2ccccc2)cc1	205
Nc1nc(C(F)(F)C(F)(F)F)nn1-c1c(Cl)cc(C(F)(F)F)cc1Cl	181 to 183
O=C1CN=C(c2ccccc2F)c2cc(Cl)ccc2N1	206 to 207
CN(C)S(=O)(=O)c1cccc(-c2cc(-c3nc(-c4ccc(C(F)(F)F)cc4)cc(C(F)(F)F)n3)ccn2)c1	225
CC=COCCC[C@H]1CC[C@H](c2cccc(F)c2F)CC1	35.5 to 36.9
CC1(c2cc(-c3nc4ccc(OCc5ccccc5)cc4[nH]3)ccc2OCc2ccccc2)CCCCC1	209
OCc1ccc(-c2ccccc2-c2nnn[nH]2)cc1	132 to 135
CC1CC(=O)NN=C1c1ccc(NC(=O)CCNCC(O)C(Cc2ccccc2)Oc2ccc(CCOCC3CC3)cc2)cc1 (centres undefined)	125 to 128
O=c1[nH]c2sc(I)nc2c2ccccc12	> 250
O=C(O)C1CCc2c(c3cc(F)ccc3n2C(=O)c2ccc(F)cc2)C1 (centres undefined)	195 to 196
CCCc1cc(C(=O)NC2=NC(=O)CN2C)ccc1OC(C(=O)NS(=O)(=O)c1ccc(C(C)C)cc1)c1ccc2c(c1)OCO2 (centres undefined)	137 to 139
Cc1nc(-c2ccccc2)cc(=O)[nH]1	238 to 240
CC(=O)Nc1ccc(C#Cc2ccc(OC3CN4CCC3CC4)nn2)cc1 (centres undefined)	170 to 175
COc1ccc(-c2cnc(N)c(Br)n2)cc1	166 to 170
C/C=C(\C)CNc1cccc(-c2ccnc3c(C(=O)c4cccs4)cnn23)c1	118 to 120
CCSC(=O)CCS(=O)CC (centres undefined)	35.5 to 36
